# Experimental data from article PMC4998957 (Nature, 2016).
# Legend:
# [1] = biological target: CAHexamer (Human immunodeficiency virus type 1 group M subtype B, UniProt P12493, A146C/E177C/M317A/W316A); type: binding, HIV-1
# [2] = biological target: disulfide-stabilised HIV-1 capsid protein hexamer (CA_(Hexamer)) R18G (HIV-1); assay: cross-linking
# [3] = biological target: CAHexamer (disulfide-stabilised HIV-1 capsid hexamer) (Human immunodeficiency virus type 1 group M subtype B, UniProt P12493, A146C/E177C/M317A/W316A); type: binding
# [4] = tested on: HIV-1 capsid cores; assay: Endogenous reverse transcription; type: biochemical; settings: DNase I and RNase A 100 μg/ml, Benzonase 250 U/ml, 100 μM each dNTP, 16 h
molecule,measurement,setting,value
Nc1ccn([C@H]2C[C@H](O)[C@@H](COP(=O)(O)OP(=O)(O)OP(=O)(O)O)O2)c(=O)n1 [dCTP],on-rate (kon),[1],> 2e+08 M⁻¹ s⁻¹
same,half life of complex,[1]; equivalent of the off-rate,0.058 s
same,off-rate,[1]; fluorescent dCTP displaced with excess unlabeled dCTP (20 µM),> 12 s⁻¹
disulfide-stabilised HIV-1 capsid protein hexamer (CA_(Hexamer)) R18G (natural protein),stoichiometry N,[2],6
Cc1cn([C@H]2C[C@H](O)[C@@H](COP(=O)(O)OP(=O)(O)OP(=O)(O)O)O2)c(=O)[nH]c1=O [dTTP],effect of 1 mM (physiological) inorganic phosphate on hexamer binding,"[3]; 2 nM fluorescein-labelled dTTP, 1 mM inorganic phosphate",no significant effect
same,comparison of affinity of ribose and deoxyribose nucleoside triphosphates,[3]; titration of CAHexamer into labelled nucleotides,same affinity
"RNase A: nuclease (protein, UniProt P61823 27-150, looked up) Ribonuclease pancreatic: KETAAAKFERQHMDSSTSAASSSNYCNQMMKSRNLTKDRCKPVNTFVHESLADVQAVCSQKNVACKNGQTNCYQSYSTMSITDCRETGSSKYPNCAYKTTQANKHIIVACEGNPYVPVHFDASV",effect of nucleases on encapsidated reverse transcription,[4],failed to prevent
